# Source: ChEMBL document CHEMBL4052588, “Design of a Biased Potent Small Molecule Inhibitor of the Bromodomain and PHD Finger-Containing (BRPF) Proteins Suitable for Cellular and in Vivo Studies” (J Med Chem, 2017)
# What was measured:
# [1] = target: T1, Peregrin (Homo sapiens, UniProt P55201); assay: Inhibition of human BRPF1 expressed in Escherichia coli BL21 after 1 hr by BROMOscan assay
# T1 sequence (P55201 whole entry): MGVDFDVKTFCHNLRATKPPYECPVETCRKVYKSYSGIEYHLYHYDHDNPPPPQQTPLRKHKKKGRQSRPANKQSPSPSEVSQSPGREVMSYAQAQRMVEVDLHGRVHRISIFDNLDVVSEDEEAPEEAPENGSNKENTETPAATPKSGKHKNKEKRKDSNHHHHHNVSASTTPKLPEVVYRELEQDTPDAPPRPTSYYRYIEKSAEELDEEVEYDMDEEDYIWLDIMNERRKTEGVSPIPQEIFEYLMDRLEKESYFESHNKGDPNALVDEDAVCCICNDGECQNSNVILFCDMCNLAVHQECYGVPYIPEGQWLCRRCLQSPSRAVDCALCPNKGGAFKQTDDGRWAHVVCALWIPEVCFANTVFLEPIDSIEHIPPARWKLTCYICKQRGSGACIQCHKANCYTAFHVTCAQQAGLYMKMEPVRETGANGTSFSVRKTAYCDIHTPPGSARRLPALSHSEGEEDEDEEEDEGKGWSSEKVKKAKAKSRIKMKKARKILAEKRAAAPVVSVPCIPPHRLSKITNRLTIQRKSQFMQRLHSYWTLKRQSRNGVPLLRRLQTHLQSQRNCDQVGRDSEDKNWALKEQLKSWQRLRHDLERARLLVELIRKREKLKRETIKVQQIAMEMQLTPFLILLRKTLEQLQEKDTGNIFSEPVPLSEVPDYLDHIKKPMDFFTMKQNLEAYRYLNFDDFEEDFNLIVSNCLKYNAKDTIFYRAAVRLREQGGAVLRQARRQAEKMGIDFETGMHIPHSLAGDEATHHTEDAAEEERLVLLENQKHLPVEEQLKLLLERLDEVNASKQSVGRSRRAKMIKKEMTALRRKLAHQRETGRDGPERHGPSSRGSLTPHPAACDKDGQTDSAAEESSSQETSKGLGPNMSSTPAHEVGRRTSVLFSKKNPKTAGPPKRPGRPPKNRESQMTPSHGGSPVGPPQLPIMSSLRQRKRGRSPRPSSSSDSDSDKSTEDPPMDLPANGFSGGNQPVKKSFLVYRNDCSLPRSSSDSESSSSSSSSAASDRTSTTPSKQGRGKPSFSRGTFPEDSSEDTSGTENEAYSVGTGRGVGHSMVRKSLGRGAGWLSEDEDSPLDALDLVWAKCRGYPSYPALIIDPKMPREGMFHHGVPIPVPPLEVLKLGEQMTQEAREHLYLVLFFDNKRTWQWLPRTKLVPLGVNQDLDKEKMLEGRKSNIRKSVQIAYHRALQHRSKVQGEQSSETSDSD
# [2] = target: T2, Peregrin (Homo sapiens) (UniProt P55201)
# T2 sequence (whole entry): T1 sequence (P55201 whole entry)
# [3] = target: T3, Bromodomain and PHD finger-containing protein 3 (Homo sapiens) (UniProt Q9ULD4)
# T3 sequence (whole entry): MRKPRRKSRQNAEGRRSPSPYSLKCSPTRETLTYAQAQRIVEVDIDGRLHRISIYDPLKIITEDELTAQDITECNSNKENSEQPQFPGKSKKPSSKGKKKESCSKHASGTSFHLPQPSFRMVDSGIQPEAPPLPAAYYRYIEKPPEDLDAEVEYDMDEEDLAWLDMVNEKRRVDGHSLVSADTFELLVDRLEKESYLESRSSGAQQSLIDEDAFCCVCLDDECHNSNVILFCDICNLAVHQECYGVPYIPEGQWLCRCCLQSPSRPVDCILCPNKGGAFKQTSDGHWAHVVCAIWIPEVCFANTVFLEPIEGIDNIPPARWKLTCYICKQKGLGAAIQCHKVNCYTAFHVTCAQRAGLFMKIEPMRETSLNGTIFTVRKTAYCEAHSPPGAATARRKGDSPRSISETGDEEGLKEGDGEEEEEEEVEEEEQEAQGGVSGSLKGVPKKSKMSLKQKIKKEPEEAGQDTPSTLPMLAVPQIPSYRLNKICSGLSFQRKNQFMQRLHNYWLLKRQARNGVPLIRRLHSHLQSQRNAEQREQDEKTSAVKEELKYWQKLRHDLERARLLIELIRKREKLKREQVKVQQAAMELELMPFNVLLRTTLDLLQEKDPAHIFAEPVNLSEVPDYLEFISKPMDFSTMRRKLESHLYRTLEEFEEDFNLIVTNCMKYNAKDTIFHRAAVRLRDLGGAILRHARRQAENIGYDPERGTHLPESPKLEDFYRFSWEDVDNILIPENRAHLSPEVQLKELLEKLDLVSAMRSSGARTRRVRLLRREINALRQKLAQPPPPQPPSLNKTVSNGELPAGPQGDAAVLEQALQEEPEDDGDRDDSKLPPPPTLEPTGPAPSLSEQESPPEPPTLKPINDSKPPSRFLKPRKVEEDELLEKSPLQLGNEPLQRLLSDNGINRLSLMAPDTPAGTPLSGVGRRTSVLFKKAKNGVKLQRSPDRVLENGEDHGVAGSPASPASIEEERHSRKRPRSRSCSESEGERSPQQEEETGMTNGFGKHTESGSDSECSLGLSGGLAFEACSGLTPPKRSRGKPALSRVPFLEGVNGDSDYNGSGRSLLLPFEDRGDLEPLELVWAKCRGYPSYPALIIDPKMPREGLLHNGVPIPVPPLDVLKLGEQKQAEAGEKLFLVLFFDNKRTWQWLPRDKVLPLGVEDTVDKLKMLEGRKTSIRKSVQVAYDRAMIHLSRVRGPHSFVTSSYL
# [4] = target: T4, Bromodomain-containing protein 9 (Homo sapiens) (UniProt Q9H8M2)
# T4 sequence (whole entry): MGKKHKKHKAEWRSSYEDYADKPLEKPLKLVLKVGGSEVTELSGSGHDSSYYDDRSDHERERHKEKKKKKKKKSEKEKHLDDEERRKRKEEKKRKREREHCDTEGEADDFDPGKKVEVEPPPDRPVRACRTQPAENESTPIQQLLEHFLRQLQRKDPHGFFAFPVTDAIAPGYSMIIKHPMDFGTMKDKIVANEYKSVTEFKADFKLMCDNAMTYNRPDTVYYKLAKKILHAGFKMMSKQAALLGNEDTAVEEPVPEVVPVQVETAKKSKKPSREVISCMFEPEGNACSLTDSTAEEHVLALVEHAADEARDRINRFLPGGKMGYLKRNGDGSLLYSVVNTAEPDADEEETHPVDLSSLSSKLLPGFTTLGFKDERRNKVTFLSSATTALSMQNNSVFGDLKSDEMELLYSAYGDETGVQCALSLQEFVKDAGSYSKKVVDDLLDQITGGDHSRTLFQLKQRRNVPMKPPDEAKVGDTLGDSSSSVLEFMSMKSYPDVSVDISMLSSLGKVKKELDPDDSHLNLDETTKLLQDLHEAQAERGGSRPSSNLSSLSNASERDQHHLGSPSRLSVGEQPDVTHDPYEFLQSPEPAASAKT
# [5] = target: Bromodomain-containing protein 4 (Homo sapiens, UniProt O60885)
SMILES,IC50 [1],ΔTm [3],ΔTm [4],ΔTm [5],ΔTm [2]
Cc1cc(C#N)ccc1S(=O)(=O)Nc1ccc2c(ccc(=O)n2C)c1,,2.4 °C,2.2 °C,0.4 °C,6.5 °C
Cn1c(=O)ccc2cc(NS(=O)(=O)c3ccc(C#N)c(Cl)c3)ccc21,0.062 µM,,,,4.3 °C
CCc1cc2cc(NS(=O)(=O)c3ccc(C#N)cc3)ccc2n(CC)c1=O,> 100 µM,,,,
Cc1cc2cc(NS(=O)(=O)c3ccc(C#N)cc3)ccc2n(C)c1=O,0.0079 µM,4.5 °C,3.5 °C,0.95 °C,

# Second part, led by results:
IC50 [1],ΔTm [3],ΔTm [4],ΔTm [5],SMILES,ΔTm [2]
0.06 µM,,,,COc1cc2c(cc1NS(=O)(=O)c1ccc(C#N)cc1)c(C)cc(=O)n2C,
0.22 µM,,,,COc1ccccc1C(=O)Nc1cc2cc(C)c(=O)n(C)c2cc1N1CCCC1,
